Paper doi:10.1101/396440v2, “Large-scale chemical-genetics yields new Mycobacterium tuberculosis inhibitor classes” (biorxiv, 2019)

Legend:
Mtb's efpA homolog = Mtb's efpA homolog (Mycobacterium tuberculosis, UniProt P9WJY5); settings: high-affinity interaction lost on efpA deletion
EfpA = target: T1, EfpA (Mycolicibacterium smegmatis, UniProt A0QVL8); experiment: ethidium bromide efflux (fluorescence) in M. smegmatis cells; format: cell-based
T1 construct: gene MSMEG_2619; native efflux pump in intact M. smegmatis cells; ethidium bromide efflux read-out

Mtb DNA gyrase = target: T2, Mtb DNA gyrase (Mycobacterium tuberculosis, UniProt P9WG45+P9WG47); experiment: DNA supercoiling/decatenation inhibition, agarose gel; format: biochemical
T2 construct: gene gyrA; in vitro DNA gyrase; source details in supplement
T2 sequence (P9WG45 whole entry): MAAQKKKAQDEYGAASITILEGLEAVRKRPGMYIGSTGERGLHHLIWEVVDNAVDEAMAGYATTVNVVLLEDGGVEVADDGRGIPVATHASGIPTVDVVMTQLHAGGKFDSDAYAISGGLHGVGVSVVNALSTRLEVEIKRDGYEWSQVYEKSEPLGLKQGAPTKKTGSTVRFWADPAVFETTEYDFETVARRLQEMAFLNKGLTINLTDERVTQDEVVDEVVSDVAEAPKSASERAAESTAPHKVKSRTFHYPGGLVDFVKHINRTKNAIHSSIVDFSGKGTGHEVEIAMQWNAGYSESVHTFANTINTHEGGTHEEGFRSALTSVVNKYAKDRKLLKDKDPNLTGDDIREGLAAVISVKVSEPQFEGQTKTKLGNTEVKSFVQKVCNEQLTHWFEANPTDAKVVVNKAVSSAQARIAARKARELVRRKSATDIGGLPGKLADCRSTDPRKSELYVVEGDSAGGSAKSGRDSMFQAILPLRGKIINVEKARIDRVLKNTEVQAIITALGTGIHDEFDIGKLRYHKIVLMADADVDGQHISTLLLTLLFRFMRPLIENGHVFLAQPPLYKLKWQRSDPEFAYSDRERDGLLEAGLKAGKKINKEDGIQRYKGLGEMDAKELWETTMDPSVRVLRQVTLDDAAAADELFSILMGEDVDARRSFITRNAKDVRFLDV
T2 sequence (P9WG47 2-838): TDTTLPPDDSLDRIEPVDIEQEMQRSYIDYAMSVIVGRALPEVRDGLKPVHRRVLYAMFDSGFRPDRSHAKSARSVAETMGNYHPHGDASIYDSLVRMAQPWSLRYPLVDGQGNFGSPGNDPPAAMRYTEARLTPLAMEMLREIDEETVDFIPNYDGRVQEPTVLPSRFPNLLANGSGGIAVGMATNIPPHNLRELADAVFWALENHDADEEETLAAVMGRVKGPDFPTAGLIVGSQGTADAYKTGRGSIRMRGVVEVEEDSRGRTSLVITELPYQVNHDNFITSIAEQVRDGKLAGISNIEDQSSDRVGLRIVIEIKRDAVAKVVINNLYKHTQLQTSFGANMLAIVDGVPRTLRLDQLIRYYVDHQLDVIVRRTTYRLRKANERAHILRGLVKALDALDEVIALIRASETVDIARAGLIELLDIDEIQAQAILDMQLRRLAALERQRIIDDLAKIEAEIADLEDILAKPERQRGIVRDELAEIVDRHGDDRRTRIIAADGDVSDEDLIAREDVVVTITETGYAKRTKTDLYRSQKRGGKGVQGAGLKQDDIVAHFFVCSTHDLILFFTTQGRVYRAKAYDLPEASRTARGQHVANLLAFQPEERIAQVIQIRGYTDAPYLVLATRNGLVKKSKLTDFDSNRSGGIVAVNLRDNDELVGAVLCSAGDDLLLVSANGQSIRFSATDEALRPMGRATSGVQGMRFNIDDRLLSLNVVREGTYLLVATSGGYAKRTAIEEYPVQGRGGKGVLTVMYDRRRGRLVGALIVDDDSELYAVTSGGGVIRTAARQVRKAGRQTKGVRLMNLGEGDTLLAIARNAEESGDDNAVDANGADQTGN

Sequence of Mtb's efpA homolog (P9WJY5 whole entry): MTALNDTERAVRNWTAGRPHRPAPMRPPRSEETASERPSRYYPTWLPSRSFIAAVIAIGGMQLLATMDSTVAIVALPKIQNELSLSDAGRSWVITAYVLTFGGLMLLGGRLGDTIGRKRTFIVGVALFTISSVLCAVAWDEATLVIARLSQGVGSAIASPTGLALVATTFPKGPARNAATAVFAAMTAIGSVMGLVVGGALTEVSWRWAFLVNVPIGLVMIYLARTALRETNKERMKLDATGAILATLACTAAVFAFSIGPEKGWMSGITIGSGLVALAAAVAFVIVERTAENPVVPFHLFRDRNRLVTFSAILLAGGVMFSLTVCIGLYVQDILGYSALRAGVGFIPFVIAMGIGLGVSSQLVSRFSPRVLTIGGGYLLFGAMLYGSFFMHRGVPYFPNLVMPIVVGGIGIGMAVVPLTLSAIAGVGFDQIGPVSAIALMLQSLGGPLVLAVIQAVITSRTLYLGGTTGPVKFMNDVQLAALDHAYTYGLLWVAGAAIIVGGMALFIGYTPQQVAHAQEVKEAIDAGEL

SMILES	interaction with M. smegmatis efpA deletion strain complemented with Mtb efpA (Mtb's efpA homolog)	IC50 (EfpA) [µM]	DNA supercoiling/decatenation inhibition, agarose gel (Mtb DNA gyrase)
CC(C)=C[C@H]1[C@H](C(=O)Nc2cccc(Br)n2)C1(C)C [BRD-8000.2]	This highaffinity interaction is restored by episomal complementation of Mtb’s efpA homolog	15	
CC(C)=C[C@@H]1[C@@H](C(=O)Nc2cccc(Br)n2)C1(C)C [(R,R)-trans isomer of BRD-8000.2]		500	
CC(C)=CC1C(C(=O)Nc2ccc(Br)cn2)C1(C)C (mixture of isomers) [BRD-8000]		38	
O=C1c2ccccc2-n2c1nc1ccccc1c2=O [tryptanthrin]			we validated it to be a DNA gyrase inhibitor
